Source: patent US20260224588A1, “BENZODIAZEPINONE-DERIVED INHIBITORS OF EGFR AND HER2” (The Research Foundation for the State University of New York, priority 2023, published 2026)

Tests used:
Test in all cases: KINOMEscan
Assay type in all cases: binding
Details in all cases: 1 μM of compound 4; read-out: POC
[1] = target: MLK3 (Homo sapiens, UniProt Q16584)
[2] = target: MAPKAPK5 (Homo sapiens, UniProt Q8IW41)
[3] = target: T1, TNK2 (Homo sapiens, UniProt Q07912)
T1 construct: purchased Eurofins DiscoverX Corporation

[4] = target: PIK3CA(E542K) (Homo sapiens, UniProt P42336, E542K)
[5] = target: T2, ERK8 (Homo sapiens, UniProt Q8TD08)
T2 construct: purchased Eurofins DiscoverX Corporation

[6] = target: PLK2 (Homo sapiens, UniProt Q9NYY3)
PLK2, sequence (Q9NYY3 whole entry): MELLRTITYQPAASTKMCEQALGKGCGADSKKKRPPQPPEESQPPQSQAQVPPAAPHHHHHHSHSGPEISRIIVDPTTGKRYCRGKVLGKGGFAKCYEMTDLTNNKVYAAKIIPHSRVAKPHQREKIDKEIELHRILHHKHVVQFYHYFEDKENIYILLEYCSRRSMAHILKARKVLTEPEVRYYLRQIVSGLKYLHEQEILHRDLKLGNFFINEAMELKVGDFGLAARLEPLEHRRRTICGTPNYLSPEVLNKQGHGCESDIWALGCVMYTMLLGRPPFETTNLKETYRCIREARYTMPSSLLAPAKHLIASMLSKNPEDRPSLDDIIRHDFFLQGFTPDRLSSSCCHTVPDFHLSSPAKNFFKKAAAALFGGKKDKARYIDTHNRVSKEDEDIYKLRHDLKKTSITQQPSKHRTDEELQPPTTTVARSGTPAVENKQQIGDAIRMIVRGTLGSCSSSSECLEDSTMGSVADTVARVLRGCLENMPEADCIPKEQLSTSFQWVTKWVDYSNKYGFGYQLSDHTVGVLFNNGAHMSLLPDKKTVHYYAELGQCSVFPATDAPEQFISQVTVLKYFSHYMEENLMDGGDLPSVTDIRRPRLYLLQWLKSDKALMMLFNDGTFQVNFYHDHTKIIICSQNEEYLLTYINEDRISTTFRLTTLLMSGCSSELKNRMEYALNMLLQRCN

[7] = target: T3, RIPK4 (Homo sapiens, UniProt P57078)
T3 construct: purchased Eurofins DiscoverX Corporation (KINOMEscan screening service)
T3 sequence (P57078 whole entry): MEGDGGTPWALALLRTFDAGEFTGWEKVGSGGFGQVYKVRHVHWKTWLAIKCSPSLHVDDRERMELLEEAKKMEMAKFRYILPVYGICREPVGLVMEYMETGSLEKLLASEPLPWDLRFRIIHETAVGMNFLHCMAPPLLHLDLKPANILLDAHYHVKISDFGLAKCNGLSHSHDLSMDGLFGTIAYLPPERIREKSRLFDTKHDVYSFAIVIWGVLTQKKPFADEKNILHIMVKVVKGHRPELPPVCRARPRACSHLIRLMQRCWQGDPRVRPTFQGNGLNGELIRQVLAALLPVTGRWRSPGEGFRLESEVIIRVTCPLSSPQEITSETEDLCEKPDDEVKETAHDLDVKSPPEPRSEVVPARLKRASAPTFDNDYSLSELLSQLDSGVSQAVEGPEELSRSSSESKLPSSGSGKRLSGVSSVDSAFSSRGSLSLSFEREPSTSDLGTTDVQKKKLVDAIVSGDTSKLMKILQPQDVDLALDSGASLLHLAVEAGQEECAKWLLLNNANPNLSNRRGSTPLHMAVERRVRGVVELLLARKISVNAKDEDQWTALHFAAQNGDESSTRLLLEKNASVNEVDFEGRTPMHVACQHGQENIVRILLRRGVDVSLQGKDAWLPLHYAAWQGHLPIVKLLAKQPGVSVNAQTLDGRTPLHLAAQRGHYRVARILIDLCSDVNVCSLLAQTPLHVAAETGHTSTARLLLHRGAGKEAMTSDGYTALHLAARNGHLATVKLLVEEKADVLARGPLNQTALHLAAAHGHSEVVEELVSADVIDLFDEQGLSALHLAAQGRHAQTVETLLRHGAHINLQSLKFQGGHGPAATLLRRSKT

[8] = target: PKMYT1 (Homo sapiens, UniProt Q99640)
[9] = target: DYRK2 (Homo sapiens, UniProt Q92630)
[10] = target: CAMK4 (Homo sapiens, UniProt Q16566)
[11] = target: MAP3K15 (Homo sapiens, UniProt Q6ZN16)
MAP3K15, sequence (Q6ZN16 whole entry): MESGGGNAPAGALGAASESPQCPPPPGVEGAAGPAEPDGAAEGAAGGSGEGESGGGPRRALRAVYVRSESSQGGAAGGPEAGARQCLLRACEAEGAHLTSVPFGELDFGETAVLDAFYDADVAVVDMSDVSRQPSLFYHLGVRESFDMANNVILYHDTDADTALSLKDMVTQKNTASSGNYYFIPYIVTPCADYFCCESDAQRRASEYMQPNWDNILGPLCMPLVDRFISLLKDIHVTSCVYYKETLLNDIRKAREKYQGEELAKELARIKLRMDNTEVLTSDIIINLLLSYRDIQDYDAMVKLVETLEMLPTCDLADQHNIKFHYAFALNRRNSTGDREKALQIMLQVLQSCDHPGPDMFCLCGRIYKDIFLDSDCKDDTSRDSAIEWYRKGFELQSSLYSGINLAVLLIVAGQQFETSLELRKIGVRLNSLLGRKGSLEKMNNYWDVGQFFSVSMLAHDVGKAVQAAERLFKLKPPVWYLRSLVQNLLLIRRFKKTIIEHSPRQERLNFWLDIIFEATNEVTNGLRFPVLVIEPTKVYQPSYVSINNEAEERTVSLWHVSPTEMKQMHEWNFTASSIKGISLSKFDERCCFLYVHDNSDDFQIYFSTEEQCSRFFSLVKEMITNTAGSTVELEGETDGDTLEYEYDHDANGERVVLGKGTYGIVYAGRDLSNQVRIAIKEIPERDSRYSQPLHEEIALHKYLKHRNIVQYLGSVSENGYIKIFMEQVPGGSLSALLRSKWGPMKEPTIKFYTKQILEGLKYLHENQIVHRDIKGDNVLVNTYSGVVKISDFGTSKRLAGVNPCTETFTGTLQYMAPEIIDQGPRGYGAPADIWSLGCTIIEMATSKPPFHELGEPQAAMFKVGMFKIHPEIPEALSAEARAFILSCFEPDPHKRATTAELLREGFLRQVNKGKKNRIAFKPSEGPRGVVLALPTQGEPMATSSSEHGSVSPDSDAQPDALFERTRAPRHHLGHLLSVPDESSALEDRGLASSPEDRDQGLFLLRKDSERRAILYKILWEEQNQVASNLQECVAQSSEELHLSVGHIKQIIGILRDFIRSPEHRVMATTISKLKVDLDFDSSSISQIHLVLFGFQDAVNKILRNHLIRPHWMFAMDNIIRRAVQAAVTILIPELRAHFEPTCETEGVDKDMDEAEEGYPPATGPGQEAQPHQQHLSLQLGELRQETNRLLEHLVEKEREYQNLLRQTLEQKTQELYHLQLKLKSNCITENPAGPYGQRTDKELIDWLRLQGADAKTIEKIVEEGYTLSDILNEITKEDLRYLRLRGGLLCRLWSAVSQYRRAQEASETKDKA

[12] = target: NEK6 (Homo sapiens, UniProt Q9HC98)
NEK6, sequence (Q9HC98 whole entry): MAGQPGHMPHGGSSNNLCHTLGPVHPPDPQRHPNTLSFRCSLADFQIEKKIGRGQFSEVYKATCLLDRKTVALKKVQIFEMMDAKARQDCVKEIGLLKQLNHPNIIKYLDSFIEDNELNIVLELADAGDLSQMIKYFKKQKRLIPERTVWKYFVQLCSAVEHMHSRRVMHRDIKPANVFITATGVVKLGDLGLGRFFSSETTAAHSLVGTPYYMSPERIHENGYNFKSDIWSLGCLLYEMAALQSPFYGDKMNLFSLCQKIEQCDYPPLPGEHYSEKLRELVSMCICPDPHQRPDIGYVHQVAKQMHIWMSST

[13] = target: PIK3CA(C420R) (Homo sapiens, UniProt P42336, C420R)
[14] = target: T4, ABL1(Q252H)-nonphosphorylated (Homo sapiens, UniProt P00519, Q252H)
T4 construct: purchased Eurofins DiscoverX Corporation

[15] = target: T5, PAK1 (Homo sapiens, UniProt Q13153)
T5 construct: purchased Eurofins DiscoverX Corporation (KINOMEscan)

[16] = target: DCAMKL2 (Homo sapiens, UniProt Q8N568)
[17] = target: T6, PAK7 (Homo sapiens, UniProt Q9P286)
T6 construct: purchased Eurofins DiscoverX Corporation (KINOMEscan)

[18] = target: LRRK2(G2019S) (Homo sapiens, UniProt Q5S007, G2019S)
[19] = target: ARK5 (Homo sapiens, UniProt O60285)
[20] = target: T7, TNNI3K (Homo sapiens, UniProt Q59H18)
T7 construct: purchased Eurofins DiscoverX Corporation

[21] = target: T8, SIK2 (Homo sapiens, UniProt Q9H0K1)
T8 construct: purchased Eurofins DiscoverX (KINOMEscan service)

[22] = target: CAMK2A (Homo sapiens, UniProt Q9UQM7)
CAMK2A, sequence (Q9UQM7 whole entry): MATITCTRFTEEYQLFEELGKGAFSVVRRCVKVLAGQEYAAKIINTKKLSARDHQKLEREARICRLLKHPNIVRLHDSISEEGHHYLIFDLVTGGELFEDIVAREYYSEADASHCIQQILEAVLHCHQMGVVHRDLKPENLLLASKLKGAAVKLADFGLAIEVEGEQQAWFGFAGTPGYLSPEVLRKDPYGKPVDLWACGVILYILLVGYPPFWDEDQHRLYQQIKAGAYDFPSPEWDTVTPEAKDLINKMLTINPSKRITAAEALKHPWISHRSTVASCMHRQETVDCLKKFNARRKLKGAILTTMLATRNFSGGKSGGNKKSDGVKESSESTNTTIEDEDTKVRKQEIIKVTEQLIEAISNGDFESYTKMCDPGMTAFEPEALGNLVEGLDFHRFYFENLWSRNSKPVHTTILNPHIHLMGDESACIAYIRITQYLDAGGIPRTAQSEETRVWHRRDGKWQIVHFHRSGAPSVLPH

[23] = target: IRAK4 (Homo sapiens, UniProt Q9NWZ3)
[24] = target: MAP4K3 (Homo sapiens, UniProt Q8IVH8)
[25] = target: T9, RPS6KA4(Kin.Dom.1-N-terminal) (Homo sapiens, UniProt O75676)
T9 construct: RPS6KA4(Kin.Dom.1-N-terminal); purchased Eurofins DiscoverX Corporation (KINOMEscan screening service)

[26] = target: KIT(V559D + T670I) (Homo sapiens, UniProt P10721, T670I/V559D)
[27] = target: BMPR1A (Homo sapiens, UniProt P36894)
BMPR1A, sequence (P36894 24-532): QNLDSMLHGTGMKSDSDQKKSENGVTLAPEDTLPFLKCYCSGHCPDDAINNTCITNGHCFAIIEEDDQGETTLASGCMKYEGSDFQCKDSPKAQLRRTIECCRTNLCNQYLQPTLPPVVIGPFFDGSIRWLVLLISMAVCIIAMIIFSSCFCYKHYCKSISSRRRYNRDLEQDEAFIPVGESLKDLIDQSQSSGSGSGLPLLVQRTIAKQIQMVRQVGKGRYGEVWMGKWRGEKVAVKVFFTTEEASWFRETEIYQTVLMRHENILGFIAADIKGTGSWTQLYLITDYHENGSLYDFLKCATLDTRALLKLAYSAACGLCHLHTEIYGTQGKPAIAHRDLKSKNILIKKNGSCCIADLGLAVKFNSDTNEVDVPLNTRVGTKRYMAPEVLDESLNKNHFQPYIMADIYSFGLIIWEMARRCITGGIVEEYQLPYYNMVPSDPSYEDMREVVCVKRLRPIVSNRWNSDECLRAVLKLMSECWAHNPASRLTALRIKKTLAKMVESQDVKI

[28] = target: ADCK4 (Homo sapiens, UniProt Q96D53)
[29] = target: PIM2 (Homo sapiens, UniProt Q9P1W9)
[30] = target: PIK3CA(H1047L) (Homo sapiens, UniProt P42336, H1047L)
[31] = target: MYLK4 (Homo sapiens, UniProt Q86YV6)
[32] = target: NEK3 (Homo sapiens, UniProt P51956)
[33] = target: LIMK2 (Homo sapiens, UniProt P53671)
[34] = target: T10, SBK1 (Homo sapiens, UniProt Q52WX2)
T10 construct: purchased Eurofins DiscoverX (KINOMEscan service)

[35] = target: ACVR2B (Homo sapiens, UniProt Q13705)
[36] = target: EGFR (Homo sapiens, UniProt P00533)
[37] = target: T11, ABL1-phosphorylated (Homo sapiens, UniProt P00519)
T11 construct: purchased Eurofins DiscoverX Corporation

[38] = target: AURKA (Homo sapiens, UniProt O14965)

MLK3, sequence (Q16584 whole entry): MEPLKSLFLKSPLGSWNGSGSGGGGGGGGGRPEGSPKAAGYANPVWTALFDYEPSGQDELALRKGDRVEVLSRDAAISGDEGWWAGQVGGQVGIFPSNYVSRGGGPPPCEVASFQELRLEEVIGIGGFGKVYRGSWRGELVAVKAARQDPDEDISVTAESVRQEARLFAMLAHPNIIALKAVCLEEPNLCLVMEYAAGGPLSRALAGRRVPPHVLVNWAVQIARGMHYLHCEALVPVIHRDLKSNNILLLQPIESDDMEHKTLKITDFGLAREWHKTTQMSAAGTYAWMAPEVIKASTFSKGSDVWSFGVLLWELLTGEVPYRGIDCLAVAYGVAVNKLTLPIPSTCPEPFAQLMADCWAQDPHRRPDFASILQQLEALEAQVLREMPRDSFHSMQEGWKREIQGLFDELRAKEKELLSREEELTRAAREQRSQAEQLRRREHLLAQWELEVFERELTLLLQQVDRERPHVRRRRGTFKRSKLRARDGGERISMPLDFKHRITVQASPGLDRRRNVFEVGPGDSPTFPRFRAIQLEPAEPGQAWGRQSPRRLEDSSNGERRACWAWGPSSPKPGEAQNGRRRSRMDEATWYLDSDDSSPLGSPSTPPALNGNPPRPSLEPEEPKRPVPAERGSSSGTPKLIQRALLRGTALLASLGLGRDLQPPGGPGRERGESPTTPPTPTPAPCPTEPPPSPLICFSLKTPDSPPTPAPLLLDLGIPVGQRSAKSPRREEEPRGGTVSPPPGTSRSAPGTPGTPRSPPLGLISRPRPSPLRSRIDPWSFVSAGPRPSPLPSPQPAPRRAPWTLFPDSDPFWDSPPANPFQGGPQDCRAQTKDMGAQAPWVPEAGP

In the case of `C=CC(=O)Nc1ccc(OC)c(Nc2cc(-c3[nH]c(CC)nc3-c3cccc(NC(=O)c4cccc5c4NC(=O)c4ccccc4N5)c3)ccn2)c1` [Compound 4, N-(3-(5-(2-((5-Acrylamido-2-methoxyphenyl)amino)pyridin-4-yl)-2-ethyl-1H-imidazol-4-yl)phenyl)-11-oxo-10,11-dihydro-5H-dibenzo[b,e][1,4]diazepine-9-carboxamide], the remaining binding at 1 µM [1] is reported as 97%, the remaining binding at 1 µM [2] is reported as 100% and the remaining binding at 1 µM [3] is reported as 3.8%. It also gave a remaining binding at 1 µM [4] of 100%, a remaining binding at 1 µM [5] of 100% and a remaining binding at 1 µM [6] of 100%. It also gave a remaining binding at 1 µM [7] of 100%, a remaining binding at 1 µM [8] of 99% and a remaining binding at 1 µM [9] of 75%. The remaining binding at 1 µM [10] was 99%, the remaining binding at 1 µM [11] was 74% and the remaining binding at 1 µM [12] was 100%. For the same compound, the remaining binding at 1 µM [13] was 66%, the remaining binding at 1 µM [14] was 100% and the remaining binding at 1 µM [15] was 100%. For the same compound, the remaining binding at 1 µM [16] was 100%, the remaining binding at 1 µM [17] was 77% and the remaining binding at 1 µM [18] was 100%. The remaining binding at 1 µM [19] was 100%, the remaining binding at 1 µM [20] was 89% and the remaining binding at 1 µM [21] was 100%. It also gave a remaining binding at 1 µM [22] of 65%, a remaining binding at 1 µM [23] of 43% and a remaining binding at 1 µM [24] of 9.5%. It also gave a remaining binding at 1 µM [25] of 96%, a remaining binding at 1 µM [26] of 95% and a remaining binding at 1 µM [27] of 85%. The remaining binding at 1 µM [28] was 85%, the remaining binding at 1 µM [29] was 88% and the remaining binding at 1 µM [30] was 100%. It also gave a remaining binding at 1 µM [31] of 95%, a remaining binding at 1 µM [32] of 100% and a remaining binding at 1 µM [33] of 93%. It also gave a remaining binding at 1 µM [34] of 84%, a remaining binding at 1 µM [35] of 72% and a remaining binding at 1 µM [36] of 17%. It also gave a remaining binding at 1 µM [37] of 80% and a remaining binding at 1 µM [38] of 90%.
